Measurements from patent US20260356851A1, “TRICYCLIC COMPOUNDS AND USES THEREOF” (HUTCHMED LIMITED, priority 2023, published 2026).
Read-outs that look alike come from different tables or passages of the source.

Key:
Format in all cases: cell-based
[1] = target: T1, pERK1/2 (Thr202/Tyr204), NCI-1H441 (KRAS G12V) (Homo sapiens, UniProt P01116, G12V); experiment: Assay of intracellular pERK1/2 (Thr202/Tyr204) phosphorylation in NCI-H441 cells (KRAS G12V)
T1 construct: pERK1/2 HTRF read-out
Outline: (§1)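 Cells (10000-12000/well) exposed to 3-fold compound dilutions for 2 days at 37 °C, then lysed; pERK1/2 (Thr202/Tyr204) measured by HTRF with d2 and cryptate antibodies, 665/615 nm ratio.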

[2] = target: T2, pERK1/2 (Thr202/Tyr204), PANC-1 (KRAS G121D) (Homo sapiens, UniProt P01116, G12D); experiment: Assay of intracellular pERK1/2 (Thr202/Tyr204) phosphorylation in PANC-1 cells (KRAS G12D)
T2 construct: pERK1/2 HTRF read-out
T2 sequence (P01116 1-188 isoform P01116-2 G12D): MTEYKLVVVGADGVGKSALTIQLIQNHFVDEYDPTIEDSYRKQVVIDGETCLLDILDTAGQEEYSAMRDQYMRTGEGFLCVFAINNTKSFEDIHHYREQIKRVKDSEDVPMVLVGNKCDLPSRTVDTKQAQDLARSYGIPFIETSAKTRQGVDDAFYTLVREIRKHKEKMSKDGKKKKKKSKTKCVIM
Outline: as §1

[3] = target: T3, pERK1/2 (Thr202/Tyr204), NCI-1H358 (KRAS G12C) (Homo sapiens, UniProt P01116, G12C); experiment: Assay of intracellular pERK1/2 (Thr202/Tyr204) phosphorylation in NCI-H358 cells (KRAS G12C)
T3 construct: pERK1/2 HTRF read-out
T3 sequence (P01116 1-188 isoform P01116-2 G12C): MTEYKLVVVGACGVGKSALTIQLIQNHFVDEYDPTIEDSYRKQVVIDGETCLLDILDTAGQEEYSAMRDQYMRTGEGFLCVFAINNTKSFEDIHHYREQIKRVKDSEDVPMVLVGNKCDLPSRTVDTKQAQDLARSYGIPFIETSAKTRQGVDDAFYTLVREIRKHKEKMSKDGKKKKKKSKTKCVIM
Outline: as §1

[4] = pERK1/2, 2 days, read-out: NCI-H441 (KRAS G12V) IC50
[5] = pERK1/2, 2 days, read-out: PANC-1 (KRAS G12D) IC50
[6] = pERK1/2, 2 days, read-out: NCI-H358 (KRAS G12C) IC50

T1 sequence (P01116 1-188 isoform P01116-2 G12V): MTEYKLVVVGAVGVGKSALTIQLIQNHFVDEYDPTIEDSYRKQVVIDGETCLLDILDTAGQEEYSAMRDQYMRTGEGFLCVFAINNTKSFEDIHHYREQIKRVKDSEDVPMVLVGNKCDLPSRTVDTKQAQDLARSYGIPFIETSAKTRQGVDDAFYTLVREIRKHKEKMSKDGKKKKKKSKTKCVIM

SMILES	IC50 [1, 4] [nM]	IC50 [2, 5] [nM]	IC50 [3, 6] [nM]	IC50 ([1]; read-out: NCI-H441 (KRAS G12V) IC50, pERK1/2, 2 days) [nM]	IC50 ([2]; read-out: PANC-1 (KRAS G12D) IC50, pERK1/2, 2 days) [nM]	IC50 ([3]; read-out: NCI-H358 (KRAS G12C) IC50, pERK1/2, 2 days) [nM]
CC(c1cccnc1N)N1c2nc(OC[C@@]34CCCN3C[C@H](F)C4)nc3c(F)c(-c4cc(N)c(F)c(Cl)c4C(F)(F)F)nc(c23)OC[C@@H]1C (single isomer, unassigned) [Compound 269, 3-((R or S)-1-((S)-5-(5-amino-3-chloro-4-fluoro-2-(trifluoromethyl)phenyl)-4-fluoro-2-(((2R,7aS)-2-fluorotetrahydro-1H-pyrrolizin-7a(5H)-yl)methoxy)-9-methyl-8,9-dihydro-10H-7-oxa-1,3,6,10-tetraazacyclohepta[de]naphthalen-10-yl)ethyl)pyridin-2-amine]	0.3	0.6	0.2			
[2H]C1([2H])CC[C@@]2(C([2H])([2H])Oc3nc4c5c(nc(-c6cc(N)cc(C)c6C(F)(F)F)c(F)c5n3)OCCN4C(C)c3cccnc3N)C[C@@H](F)CN12 (single isomer, unassigned) [Compound 115, 3-((R or S)-1-(5-(5-amino-3-methyl-2-(trifluoromethyl)phenyl)-4-fluoro-2-(((2R,7aS)-2-fluorotetrahydro-1H-pyrrolizin-7a(5H)-yl-5,5-d2)methoxy-d2)-8,9-dihydro-10H-7-oxa-1,3,6,10-tetraazacyclohepta[de]naphthalen-10-yl)ethyl)pyridin-2-amine]	0.2	0.9	0.2			
Cc1c(F)c(N)cc(-c2nc3c4c(nc(OC[C@@]56CCCN5C[C@H](F)C6)nc4c2F)N(C(C)c2cccnc2N)C[C@@H](C)O3)c1C(F)(F)F (single isomer, unassigned) [Compound 248, 3-((R or S)-1-((R)-5-(5-amino-4-fluoro-3-methyl-2-(trifluoromethyl)phenyl)-4-fluoro-2-(((2R,7aS)-2-fluorotetrahydro-1H-pyrrolizin-7a(5H)-yl)methoxy)-8-methyl-8,9-dihydro-10H-7-oxa-1,3,6,10-tetraazacyclohepta[de]naphthalen-10-yl)ethyl)pyridin-2-amine]	1	8	0.4			
Cc1ccc(C(C)N2CCOc3nc(-c4cc(N)c(F)c(C)c4C(F)(F)F)c(F)c4nc(OC[C@@]56CCCN5C[C@H](F)C6)nc2c34)c(N)n1 (single isomer, unassigned) [Compound 251, 3-((R or S)-1-(5-(5-amino-4-fluoro-3-methyl-2-(trifluoromethyl)phenyl)-4-fluoro-2-(((2R,7aS)-2-fluorotetrahydro-1H-pyrrolizin-7a(5H)-yl)methoxy)-8,9-dihydro-10H-7-oxa-1,3,6,10-tetraazacyclohepta[de]naphthalen-10-yl)ethyl)-6-methylpyridin-2-amine]	> 100	> 100	> 100			
[2H]C([2H])(Oc1nc2c3c(nc(-c4cc(N)cc(C)c4C(F)(F)F)c(F)c3n1)OCCN2C(C)c1cccnc1N)[C@@H]1CCC([2H])([2H])N1C([2H])([2H])[2H] (single isomer, unassigned) [Compound 102, 3-((R or S)-1-(5-(5-amino-3-methyl-2-(trifluoromethyl)phenyl)-4-fluoro-2-(((S)-1-(methyl-d3)pyrrolidin-2-yl-5,5-d2)methoxy-d2)-8,9-dihydro-10H-7-oxa-1,3,6,10-tetraazacyclohepta[de]naphthalen-10-yl)ethyl)pyridin-2-amine]	2	38	0.8			
Cc1c(F)c(N)cc(-c2nc3c4c(nc(OCC56CCCN5CC5(CC5)C6)nc4c2F)N(C(C)c2cccnc2N)CCO3)c1C(F)(F)F (stereo not drawn) [Compound 218]	1	4	0.5			
C#Cc1c(F)ccc2cc(O)cc(-c3nc4c5c(nc(OC[C@@]67CCCN6C[C@H](F)C7)nc5c3F)N(C(C)c3cccnc3N)CCO4)c12 (stereo partly drawn) [Compound 259]	1	1	0.9			
CCc1c(F)ccc2cc(OC(=O)N(C)C)cc(-c3nc4c5c(nc(OC[C@@]67CCCN6C[C@H](F)C7)nc5c3F)N(C(C)c3cccnc3N)[C@@H](C)CO4)c12 (stereo partly drawn) [Compound 301]				72	77	25
CCc1c(F)ccc2cc(O)cc(-c3nc4c5c(nc(OC[C@@H]6C[C@@H](F)CN6C)nc5c3F)N(C(C)c3cccnc3N)[C@@H](C)CO4)c12 (stereo partly drawn) [Compound 290]	0.3	0.2	0.2			
C/C=C/c1cc(N)cc(-c2nc3c4c(nc(OC[C@@]56CCCN5C[C@H](F)C6)nc4c2F)N(C(C)c2cccnc2N)[C@@H](C)CO3)c1C(F)(F)F (stereo partly drawn) [Compound 302]	> 100	> 100	> 100			
CCN1CCC[C@H]1COc1nc2c3c(nc(-c4cc(N)cc(C)c4C(F)(F)F)c(F)c3n1)OCCN2C(C)c1cccnc1N (stereo partly drawn) [Compound 114]	0.9	19	0.6			
Cc1c(F)c(N)cc(-c2nc3c4c(nc(OC[C@@]56CCCN5C[C@H](F)C6)nc4c2F)N(C(C)c2cccnc2N)[C@@H](C)CO3)c1C(F)(F)F (single isomer, unassigned) [Compound 263, 3-((R or S)-1-((S)-5-(5-amino-4-fluoro-3-methyl-2-(trifluoromethyl)phenyl)-4-fluoro-2-(((2R,7aS)-2-fluorotetrahydro-1H-pyrrolizin-7a(5H)-yl)methoxy)-9-methyl-8,9-dihydro-10H-7-oxa-1,3,6,10-tetraazacyclohepta[de]naphthalen-10-yl)ethyl)pyridin-2-amine]	40	35	14			
CC(c1cccnc1N)N1CCOc2nc(-c3cc(O)cc(Cl)c3C3CC3)c(F)c3nc(OC[C@@H]4CCN4CC(F)F)nc1c23 (stereo partly drawn) [Compound 16]	5	151	2			
Cc1c(F)c(N)cc(-c2nc3c4c(nc(OCC56CC(F)CN5CC(F)C6)nc4c2F)N(C(C)c2cccnc2N)CCO3)c1C(F)(F)F (single isomer, unassigned; diastereomer 1) [Compound 241, (*)3-(1-(5-(5-amino-4-fluoro-3-methyl-2-(trifluoromethyl)phenyl)-2-(((2R or 2S,6R or 6S)-2,6-difluorotetrahydro-1H-pyrrolizin-7a(5H)-yl)methoxy)-4-fluoro-8,9-dihydro-10H-7-oxa-1,3,6,10-tetraazacyclohepta[de]naphthalen-10-yl)ethyl)pyridin-2-amine (diastereomer 1)]	0.9	13	0.2			
CC(c1cccnc1N)N1CCOc2nc(-c3cc(N)c(F)cc3C(F)(F)F)c(F)c3nc(OC[C@@]45CCCN4C[C@H](F)C5)nc1c23 (single isomer, unassigned) [Compound 144, 3-((R or S)-1-(5-(5-amino-4-fluoro-2-(trifluoromethyl)phenyl)-4-fluoro-2-(((2R,7aS)-2-fluorotetrahydro-1H-pyrrolizin-7a(5H)-yl)methoxy)-8,9-dihydro-10H-7-oxa-1,3,6,10-tetraazacyclohepta[de]naphthalen-10-yl)ethyl)pyridin-2-amine]	2	17	0.4			
Cc1cc2[nH]ncc2c(-c2nc3c4c(nc(OC[C@@]56CCCN5C[C@H](F)C6)nc4c2F)N(C(C)c2cccnc2N)[C@@H](C)CO3)c1C1CC1 (stereo partly drawn) [Compound 317]	0.8	0.3	0.4			
C#Cc1c(F)ccc2cc(O)cc(-c3nc4c5c(nc(OC[C@@H]6C[C@@H](F)CN6C)nc5c3F)N(C(C)c3cccnc3N)[C@@H](C)CO4)c12 (single isomer, unassigned) [Compound 285, 4-((S)-10-((R or S)-1-(2-aminopyridin-3-yl)ethyl)-4-fluoro-2-(((2S,4R)-4-fluoro-1-methylpyrrolidin-2-yl)methoxy)-9-methyl-9,10-dihydro-8H-7-oxa-1,3,6,10-tetraazacyclohepta[de]naphthalen-5-yl)-5-ethynyl-6-fluoronaphthalen-2-ol]	17	86	27			
[2H]C1([2H])Oc2nc(-c3cc(N)c(F)c(C)c3C(F)(F)F)c(F)c3nc(OC[C@@]45CCCN4C[C@H](F)C5)nc(c23)N(C(C)c2cccnc2N)C1([2H])[2H] (single isomer, unassigned) [Compound 199, 3-((R or S)-1-(5-(5-amino-4-fluoro-3-methyl-2-(trifluoromethyl)phenyl)-4-fluoro-2-(((2R,7aS)-2-fluorotetrahydro-1H-pyrrolizin-7a(5H)-yl)methoxy)-8,9-dihydro-10H-7-oxa-1,3,6,10-tetraazacyclohepta[de]naphthalen-10-yl-8,8,9,9-d4)ethyl)pyridin-2-amine]	0.2	1	0.2			
[2H]C1([2H])CC[C@@]2(C([2H])([2H])Oc3nc4c5c(nc(-c6cc(N)cc(C)c6C(F)(F)F)c(F)c5n3)OCCN4C(C)c3cccnc3N)C[C@@H](F)CN12 (single isomer, unassigned) [Compound 116, 3-((R or S)-1-(5-(5-amino-3-methyl-2-(trifluoromethyl)phenyl)-4-fluoro-2-(((2R,7aS)-2-fluorotetrahydro-1H-pyrrolizin-7a(5H)-yl-5,5-d2)methoxy-d2)-8,9-dihydro-10H-7-oxa-1,3,6,10-tetraazacyclohepta[de]naphthalen-10-yl)ethyl)pyridin-2-amine]	9	23	4			
